Reference: ChEMBL document CHEMBL1201862, “PubChem BioAssay data set” (2004)
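96-well plates; 48 h exposure; 5 concentrations. Endpoints by linear interpolation between flanking doses. Not reached: highest tested concentration assigned. GI50 is the concentration that inhibits growth by half.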 Calls of active or inactive are those of the source. Rule as the data show it: active = GI50 up to about 1.1 µM and inactive = higher.

Tests used:
Test in all cases: growth of human tumour cells (NCI), 48 h
[1] = tested on: SK-MEL-28
[2] = tested on: XF498
[3] = tested on: CCRF-CEM
[4] = tested on: SW-620
[5] = tested on: IGROV-1
[6] = tested on: RPMI-8226
[7] = tested on: NCI-H226
[8] = tested on: SF-268
[9] = tested on: UACC-257
[10] = tested on: NCI-H522
[11] = tested on: OVCAR-3
[12] = tested on: OVCAR-4
[13] = tested on: SK-OV-3
[14] = tested on: HCT-15
[15] = tested on: SK-MEL-5
[16] = tested on: HCC 2998
[17] = tested on: M19-MEL
[18] = tested on: A549
[19] = tested on: U-251
[20] = tested on: SR
[21] = tested on: SF-295
[22] = tested on: MOLT-4
[23] = tested on: LXFL 529
[24] = tested on: HOP-62
[25] = tested on: DMS-273
[26] = tested on: EKVX
[27] = tested on: NCI-H23
[28] = tested on: HT-29
[29] = tested on: SNB-19
[30] = tested on: M14
[31] = tested on: UO-31
[32] = tested on: SNB-75
[33] = tested on: OVCAR-5
[34] = tested on: COLO 205
[35] = tested on: CAKI-1
[36] = tested on: 786-0
[37] = tested on: Malme-3M
[38] = tested on: DLD-1
[39] = tested on: K562
[40] = tested on: SF-539
[41] = tested on: NCI-H460
[42] = tested on: DMS-114
[43] = tested on: OVCAR-8
[44] = tested on: KM-20L2
[45] = tested on: HOP-18
[46] = tested on: SN12C
[47] = tested on: UACC-62
[48] = tested on: LOX IMVI
[49] = tested on: SK-MEL-2
[50] = tested on: KM12
[51] = tested on: SNB-78
[52] = tested on: HL-60
[53] = tested on: ACHN
[54] = tested on: RXF 393
[55] = tested on: HOP-92
[56] = tested on: HCT-116
[57] = tested on: TK-10
[58] = tested on: A498

Measured: GI50

CCO/S(=N/S(=O)(=O)c1ccccc1)c1ccccc1[N+](=O)[O-] (stereo not drawn)
inactive: [1] > 100 µM | [2] > 100 µM | [3] 80.2 µM | [4] > 100 µM | [5] > 100 µM | [6] > 100 µM | [7] > 100 µM | [8] > 100 µM | [9] > 100 µM | [10] > 100 µM | [11] > 100 µM | [12] 44.1 µM | [13] > 100 µM | [15] > 100 µM | [16] > 100 µM | [17] > 100 µM | [18] > 100 µM | [19] > 100 µM | [20] > 100 µM | [21] > 100 µM | [22] > 100 µM | [23] > 100 µM | [24] > 100 µM | [25] > 100 µM | [26] > 100 µM | [27] > 100 µM | [28] > 100 µM | [29] > 100 µM | [30] > 100 µM | [31] > 100 µM | [32] > 100 µM | [33] > 100 µM | [34] > 100 µM | [35] > 100 µM | [36] > 100 µM | [37] > 100 µM | [38] > 100 µM | [39] > 100 µM | [40] > 100 µM | [41] > 100 µM | [42] > 100 µM | [43] > 100 µM | [44] > 100 µM | [45] > 100 µM | [46] > 100 µM | [47] > 100 µM | [48] > 100 µM | [49] > 100 µM | [50] > 100 µM
> 100 µM: [14]

COC(=O)C1CSC(c2csc(CCN)n2)=N1 (stereo not drawn)
inactive: [1] > 100 µM | [2] > 100 µM | [3] > 100 µM | [4] > 100 µM | [5] > 100 µM | [6] > 100 µM | [7] > 100 µM | [51] > 100 µM | [9] > 100 µM | [10] > 100 µM | [11] > 100 µM | [12] > 100 µM | [13] > 100 µM | [15] > 100 µM | [16] > 100 µM | [17] > 100 µM | [18] > 100 µM | [19] > 100 µM | [20] > 100 µM | [52] > 100 µM | [21] > 100 µM | [22] > 100 µM | [23] > 100 µM | [25] > 100 µM | [26] > 100 µM | [27] > 100 µM | [28] > 100 µM | [29] > 100 µM | [30] > 100 µM | [53] > 100 µM | [31] > 100 µM | [32] > 100 µM | [33] > 100 µM | [54] > 100 µM | [34] > 100 µM | [35] > 100 µM | [36] > 100 µM | [37] > 100 µM | [39] > 100 µM | [41] > 100 µM | [42] > 100 µM | [55] > 100 µM | [43] > 100 µM | [44] > 100 µM | [56] > 100 µM | [57] > 100 µM | [45] > 100 µM | [46] > 100 µM | [47] > 100 µM | [48] > 100 µM | [49] > 100 µM | [50] > 100 µM
> 100 µM: [14]

O=C(c1cc(O)ccc1O)c1ccccc1C(Cl)(Cl)Cl
inactive: [2] 34.9 µM | [3] 61.5 µM | [4] > 100 µM | [5] > 100 µM | [6] 47.5 µM | [7] > 100 µM | [51] > 100 µM | [8] > 100 µM | [9] 39 µM | [10] 57.1 µM | [11] 79.1 µM | [12] 68.5 µM | [13] > 100 µM | [15] 35.6 µM | [16] > 100 µM | [17] 90.8 µM | [18] > 100 µM | [19] > 100 µM | [20] 71.8 µM | [52] 28.6 µM | [21] 55.7 µM | [22] 33 µM | [23] 61.4 µM | [24] > 100 µM | [25] > 100 µM | [26] 75.5 µM | [27] 58.2 µM | [28] > 100 µM | [29] > 100 µM | [30] 88.7 µM | [53] > 100 µM | [31] 41.9 µM | [32] > 100 µM | [33] > 100 µM | [54] > 100 µM | [34] > 100 µM | [35] 93.1 µM | [36] > 100 µM | [37] > 100 µM | [39] 61.8 µM | [40] > 100 µM | [41] > 100 µM | [42] 32 µM | [55] 38.8 µM | [43] 80.9 µM | [44] > 100 µM | [58] 82.8 µM | [56] > 100 µM | [57] > 100 µM | [45] > 100 µM | [46] > 100 µM | [47] 71.6 µM | [49] > 100 µM | [50] > 100 µM
> 100 µM: [14]
